Measured values as given in PMC10281575, “PfCRT mutations conferring piperaquine resistance in falciparum malaria shape the kinetics of quinoline drug binding and transport” (PLOS Pathogens, 2023).
Where “and” joins values, the source holds several entries; their conditions need not be identical. Equal entries are not always repeated. Where two headings read alike, the source gives them in different places.

Target: T1, PfCRT^Dd2_F145I (Plasmodium falciparum, UniProt Q8IBZ9, A220S/F145I/I356T/K76T/M74I/N326S/N75E/Q271E/R371I)
T1 construct: expressed in transfected cells; host or cells: Xenopus laevis oocytes injected with in vitro transcribed RNA (pSP64T)
T1 sequence (Q8IBZ9 1-424 M74I/N75E/K76T/F145I/A220S/Q271E/N326S/I356T/R371I): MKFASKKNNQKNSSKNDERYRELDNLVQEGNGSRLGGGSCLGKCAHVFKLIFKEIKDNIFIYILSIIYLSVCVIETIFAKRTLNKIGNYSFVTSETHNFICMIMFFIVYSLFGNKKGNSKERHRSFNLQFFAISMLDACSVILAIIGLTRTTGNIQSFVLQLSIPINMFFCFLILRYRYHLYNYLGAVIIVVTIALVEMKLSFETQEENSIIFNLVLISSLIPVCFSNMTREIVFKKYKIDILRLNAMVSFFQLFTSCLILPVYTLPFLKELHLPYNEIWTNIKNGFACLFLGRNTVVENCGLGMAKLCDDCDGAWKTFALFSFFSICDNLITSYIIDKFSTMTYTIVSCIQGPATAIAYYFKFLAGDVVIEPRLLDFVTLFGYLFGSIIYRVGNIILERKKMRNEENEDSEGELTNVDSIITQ
Assay: Competition kinetics of drug transport (radiolabeled substrate plus cold inhibitor), PfCRT^Dd2_F145I-expressing oocytes
Format: cell-based
Conditions: for PfCRTDd2_F145I-mediated CQ transport: 500 µM CQ; for Vmax, maximal velocity of drug transport: global fit; for β, partiality factor: factor on transport of the labeled drug by the other drug
Method: To further characterize the kinetic relationship between CQ and PPQ, we performed a series of competition reactions. To this end, water-injected oocytes and PfCRT-expressing oocytes were incubated in medium containing one of seven concentrations of radio-labeled CQ and one of six concentrations of cold PPQ for 60 min before the amount of radio-labeled CQ uptake was determined. The rate of PfCRT-mediated CQ uptake was calculated for each condition by subtracting the corresponding value obtained for water-injected oocytes from those of PfCRT-expressing oocytes. The results were analyzed as a function of the CQ concentration (Fig 4A) and 16 different models of substrate competition were globally fit to the data by the least-squares method, using Python. The models were ranked, according to their Akaike information criterion difference (ΔAICC) and their Akaike weight (Fig 4B), with the most plausible model being the one with the lowest AICC (ΔAICC = 0) and the highest Akaike weight.
A complementary set of experiments was undertaken to investigate the kinetic mechanism by which PfCRT^Dd2_F145I accepts CQ and PPQ (Fig 6). […] These included a global fit of the substrate competition data to the 16 kinetic models (Fig 6), analysis of the secondary plots (Vmax,app and Vmax,app/KM,app as a function of the inhibitor concentration) (Fig 7A), a fractional velocity plot analysis (Fig 7B) and a comparison of the experimental data with the modelled data using the noncompetitive inhibition equation (Fig 7C to 7F). […] The fractional velocity plot illustrated the partial character of the noncompetitive inhibition mechanism by yielding a partiality factor β^CQ = 0.31 ± 0.04, by which PPQ reduces the transport velocity of CQ (Fig 7B). […] A 3D model of the kinetics between PfCRT^Dd2_F145I, CQ and PPQ, and analyses of the residuals as a function of substrate and inhibitor concentrations confirmed that the model was also an appropriate explanation for the mutant transporter (Fig 7C to 7F).
Drug transport assays were performed as previously described. Briefly, measurements of radiolabeled drug uptake were made over 1 h, unless otherwise specified. […] Where specified, one or more unlabeled drugs were also present at the indicated concentrations. The direction of drug transport in the assays is from the extracellular medium (pH 6) into the oocyte cytosol (pH 7.2), which corresponds to the efflux of CQ or PPQ from the acidic digestive vacuole (pH 5.2) into the parasite cytosol (pH 7.2). The uptake assays were terminated by removing the oocytes from the reaction medium and washing them three times with 2 mL of ice-cold ND96 buffer. Each oocyte was transferred to a separate scintillation vial and lysed by the addition of 200 μL of a 5% SDS solution. The radioactivity in the sample was measured using a liquid scintillation analyser Tri-Carb 4910 TR (PerkinElmer). Water-injected oocytes were analyzed in parallel as a negative control. The buffer from each condition was measured in duplicate in parallel to each experiment to transform counts per minute into pmol of drug. Drug uptake attributable to PfCRT was determined by subtracting the background uptake from water-injected oocytes from that of PfCRT-expressing oocytes. In all cases, at least three independent experiments were performed on oocytes from different frogs, and for each condition in an experiment, measurements were made from 10 oocytes per treatment.
The following equations were adopted from Segel (1993), and the reader is referred to that text for the assumptions made in the author’s approach in the derivation of each equation [31]. The concentration of substrate is denoted as [S1] and the concentration of the inhibiting substrate is denoted as [S2]. KS1 and KS2 are the dissociation constants for the respective substrate-protein complexes.
Analyses of the kinetic data were performed using SigmaPlot version 13.0 and Python. […]

CCN(CC)CCCC(C)Nc1ccnc2cc(Cl)ccc12 (stereo not shown) [CQ, chloroquine]
PfCRTDd2_F145I-mediated CQ transport (200 µM PPQ): 12.08 pmol oocyte-1 h-1 and 15.16 pmol oocyte-1 h-1 and 13.13 pmol oocyte-1 h-1
PfCRTDd2_F145I-mediated CQ transport (350 µM PPQ): 10.85 pmol oocyte-1 h-1 and 12.45 pmol oocyte-1 h-1 and 11.74 pmol oocyte-1 h-1
most plausible inhibition model (16 models, ΔAICC, Akaike weight, secondary plots): partial noncompetitive inhibition
Vmax, maximal velocity of drug transport (Mixed (Partial) model, drug as radiolabeled substrate): 34 ± 2 pmol oocyte^-1 h^-1
Kd (Mixed (Partial) model, drug as cold inhibitor, read-out: KS, dissociation constant for the PfCRT-substrate complex): 200 ± 90 µM
Kd (Mixed (Partial) model, drug as radiolabeled substrate, read-out: KS, dissociation constant for the PfCRT-substrate complex): 350 ± 50 µM
β, partiality factor (Mixed (Partial) model): 0.41 ± 0.08
α, KS interaction factor (Mixed (Partial) model, label = radiolabeled substrate, other drug cold inhibitor): 1.0 ± 0.3
Vmax, maximal velocity of drug transport (Noncompetitive (Partial) model, drug as radiolabeled substrate, other drug as cold inhibitor): 34 pmol oocyte^-1 h^-1 and 34 ± 2 pmol oocyte^-1 h^-1
Kd (Noncompetitive (Partial) model, drug as cold inhibitor, read-out: KS, dissociation constant for the PfCRT-substrate complex): 225 µM and 230 µM
Kd (Noncompetitive (Partial) model, drug as radiolabeled substrate, read-out: KS, dissociation constant for the PfCRT-substrate complex): 357 µM and 360 µM
β, partiality factor (Noncompetitive (Partial) model): 0.40 and 0.40 ± 0.04
KMapp ([3H]CQ + PPQ) ([PPQ] 0 µM): 355.22 µM
Vmaxapp ([3H]CQ + PPQ) ([PPQ] 0 µM): 32.70 pmol oocyte-1 h-1
Vmaxapp/KMapp ([3H]CQ + PPQ) ([PPQ] 0 µM): 0.0962 h⁻¹
KMapp ([3H]CQ + PPQ) ([PPQ] 50 µM): 351.46 µM
Vmaxapp ([3H]CQ + PPQ) ([PPQ] 50 µM): 27.98 pmol oocyte-1 h-1
Vmaxapp/KMapp ([3H]CQ + PPQ) ([PPQ] 50 µM): 0.0844 h⁻¹
KMapp ([3H]CQ + PPQ) ([PPQ] 125 µM): 355.14 µM
Vmaxapp ([3H]CQ + PPQ) ([PPQ] 125 µM): 25.60 pmol oocyte-1 h-1
Vmaxapp/KMapp ([3H]CQ + PPQ) ([PPQ] 125 µM): 0.0728 h⁻¹
KMapp ([3H]CQ + PPQ) ([PPQ] 200 µM): 365.31 µM
Vmaxapp ([3H]CQ + PPQ) ([PPQ] 200 µM): 21.83 pmol oocyte-1 h-1
Vmaxapp/KMapp ([3H]CQ + PPQ) ([PPQ] 200 µM): 0.0619 h⁻¹
KMapp ([3H]CQ + PPQ) ([PPQ] 350 µM): 375.85 µM
Vmaxapp ([3H]CQ + PPQ) ([PPQ] 350 µM): 19.75 pmol oocyte-1 h-1
Vmaxapp/KMapp ([3H]CQ + PPQ) ([PPQ] 350 µM): 0.0554 h⁻¹
KMapp ([3H]CQ + PPQ) ([PPQ] 500 µM): 353.13 µM
Vmaxapp ([3H]CQ + PPQ) ([PPQ] 500 µM): 17.90 pmol oocyte-1 h-1
Vmaxapp/KMapp ([3H]CQ + PPQ) ([PPQ] 500 µM): 0.0540 h⁻¹
β^CQ, partiality factor (fractional velocity plot, factor by which PPQ reduces the transport velocity of CQ): 0.31 ± 0.04
Kd (secondary plot, half-maximal inhibitory concentration of Vmax,app versus inhibitor concentration, read-out: αKS, dissociation constant between the drug and the PfCRT complex with the other drug): 210 ± 120 µM
Kd (secondary plot, half-maximal inhibitory concentration of Vmax,app/KM,app versus inhibitor concentration, read-out: KS, dissociation constant between the drug and PfCRT): 250 ± 150 µM
α (αKS divided by KS) (secondary plots, label = prebound drug): 1.0 ± 0.3
